target: AMPK; test: AMPK activation, enzyme-linked immunosorbent assay; format: biochemical; details: Table 2, AMPK activation, ELISA
Method: Compounds 1-50 of Table 1 were assayed for their ability to activate AMPK using an enzyme-linked immunosorbent assay.
Compounds 51-60 of Table 1 were assayed for their ability to activate AMPK using an enzyme-linked immunosorbent assay.
Compounds 61-131 of Table 1 were assayed for their ability to activate AMPK using an enzyme-linked immunosorbent assay.
Compounds 137-141 and 143-155 of Table 1 were assayed for their ability to activate AMPK using an enzyme-linked immunosorbent assay.
Compounds 156-160 of Table 1 were assayed for their ability to activate AMPK using an enzyme-linked immunosorbent assay.

| Compound | EC50 |
| --- | --- |
| N#Cc1ccc(CN2CCC(NC(=O)c3cncc(OC4CCN(c5ccc(C(F)(F)F)cc5)CC4)c3)CC2)cc1 [Compound 17, N-(1-(4-cyanobenzyl)piperidin-4-yl)-5-(1-(4-(trifluoromethyl)phenyl)piperidin-4-yloxy)nicotinamide] | < 100 nM |
| O=C(NC1CCN(Cc2ccncc2)CC1)c1ccnc(OC2CCN(c3ccc(C(F)(F)F)cc3)CC2)c1 [Compound 20, N-(1-(pyridin-4-ylmethyl)piperidin-4-yl)-2-(1-(4-(trifluoromethyl)phenyl)piperidin-4-yloxy)isonicotinamide] | 500 to 1000 nM |
| O=C(N[C@H]1CCN(Cc2ccncc2)C1)c1ccc(OC2CCN(c3ccc(C(F)(F)F)cc3)CC2)cn1 [Compound 30, (S)-N-(1-(pyridin-4-ylmethyl)pyrrolidin-3-yl)-5-(1-(4-(trifluoromethyl)phenyl)piperidin-4-yloxy)picolinamide] | < 100 nM |
| O=C(NC1CCN(Cc2cccnc2)CC1)c1ccc(OC2CCN(c3ccc(C(F)(F)F)cc3)CC2)cn1 [Compound 5, N-(1-(pyridin-3-ylmethyl)piperidin-4-yl)-5-(1-(4-(trifluoromethyl)phenyl)piperidin-4-yloxy)picolinamide] | < 100 nM |

same assay, conditions: Table 4, AMPK activation, ELISA

| Compound | EC50 |
| --- | --- |
| O=C(NC1CCN(Cc2ccncc2)CC1)c1cc2ccc(OC3CCN(c4ccc(OC(F)(F)F)cc4)CC3)cc2o1 [Compound 88, N-(1-(pyridin-4-ylmethyl)piperidin-4-yl)-6-(1-(4-(trifluoromethoxy)phenyl)piperidin-4-yloxy)benzofuran-2-carboxamide] | < 100 nM |
| O=C(N[C@@H]1CCN(C(=O)c2ccncc2)C1)c1cc2cc(OC3CCN(c4ccc(C(F)(F)F)cc4)CC3)ccc2o1 [Compound 125, (R)-N-(1-isonicotinoylpyrrolidin-3-yl)-5-(1-(4-(trifluoromethyl)phenyl)piperidin-4-yloxy)benzofuran-2-carboxamide] | 1000 to 10000 nM |
| N#Cc1ccc(CN2CCC(NC(=O)c3cc4ccc(OC5CCN(c6ccc(OC(F)(F)F)cc6)CC5)cc4o3)CC2)cc1 [Compound 89, N-(1-(4-cyanobenzyl)piperidin-4-yl)-6-(1-(4-(trifluoromethoxy)phenyl)piperidin-4-yloxy)benzofuran-2-carboxamide] | < 100 nM |
| N#Cc1ccc(CN2CCC(NC(=O)c3cc4ccc(OC5CCN(c6ccc(C(F)(F)F)cc6)CC5)cc4o3)CC2)cc1 [Compound 90, N-(1-(4-cyanobenzyl)piperidin-4-yl)-6-(1-(4-(trifluoromethyl)phenyl)piperidin-4-yloxy)benzofuran-2-carboxamide] | < 100 nM |
| O=C(NC1CCN(Cc2ccccn2)CC1)c1cc2ccc(OC3CCN(c4ccc(OC(F)(F)F)cc4)CC3)cc2o1 [Compound 92, N-(1-(pyridin-2-ylmethyl)piperidin-4-yl)-6-(1-(4-(trifluoromethoxy)phenyl)piperidin-4-yloxy)benzofuran-2-carboxamide] | 500 to 1000 nM |
| O=C(N[C@@H]1CCN(Cc2ccccn2)C1)c1cc2cc(OC3CCN(c4ccc(C(F)(F)F)cc4)CC3)ccc2o1 [Compound 124, (R)-N-(1-(pyridin-2-ylmethyl)pyrrolidin-3-yl)-5-(1-(4-(trifluoromethyl)phenyl)piperidin-4-yloxy)benzofuran-2-carboxamide] | 1000 to 10000 nM |

same assay, conditions: Table 5, AMPK activation, ELISA

| Compound | EC50 |
| --- | --- |
| O=C(NC1CCN(Cc2ccncc2)CC1)c1cc2cc(OC3CCN(c4ccc(OC(F)(F)F)cc4)CC3)ccc2s1 [Compound 137, N-(1-(pyridin-4-ylmethyl)piperidin-4-yl)-5-(1-(4-(trifluoromethoxy)phenyl)piperidin-4-yloxy)benzo[b]thiophene-2-carboxamide] | < 100 nM |
| CC(C)(C)OC(=O)N1CCC(NC(=O)c2cc3ccc(OC4CCN(c5ccc(C(F)(F)F)cc5)CC4)cc3s2)CC1 [Compound 140, tert-butyl 4-(6-(1-(4-(trifluoromethyl)phenyl)piperidin-4-yloxy)benzo[b]thiophene-2-carboxamido)piperidine-1-carboxylate] | 500 to 1000 nM |

From patent publication US9174964B2, “AMPK-activating piperidinyloxy-substituted 2,3-dihydro-1H-indene-1-amine compounds and pharmaceutical compositions including the same” (Rigel Pharmaceuticals, Inc., priority 2007, dated 2015)
